Calls of active or inactive are those of the source. The rule behind the calls is not given here.
Tests used:
[1] = target: T1, Secreted frizzled-related protein 1 (Homo sapiens) (UniProt Q8N474); experiment: Inhibition of human SFRP1 transfected in human U20S cells at 30 uM by TCF-luciferase reporter gene assay relative to control; format: cell-based; settings: U2OS
T1 sequence (whole entry): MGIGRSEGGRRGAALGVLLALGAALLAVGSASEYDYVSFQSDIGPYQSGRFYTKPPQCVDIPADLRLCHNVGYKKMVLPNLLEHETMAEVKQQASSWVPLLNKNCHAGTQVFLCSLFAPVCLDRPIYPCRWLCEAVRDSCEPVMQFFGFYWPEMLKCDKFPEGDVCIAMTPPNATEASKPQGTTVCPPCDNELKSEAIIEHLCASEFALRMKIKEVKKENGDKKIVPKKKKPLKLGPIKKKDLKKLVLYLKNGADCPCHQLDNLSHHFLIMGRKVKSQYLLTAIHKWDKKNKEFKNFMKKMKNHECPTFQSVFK

[2] = target: T1, Secreted frizzled-related protein 1 (Homo sapiens); experiment: Inhibition of human SFRP1 transfected in human U20S cells at 15 uM by TCF-luciferase reporter gene assay relative to control; format: cell-based; settings: U2OS
[3] = target: T2, Secreted frizzled-related protein 1 (Homo sapiens, UniProt Q8N474); experiment: Inhibition of human SFRP1 transfected in human U20S cells by TCF-luciferase reporter gene assay; format: cell-based, U2OS
T2 sequence (Q8N474 whole entry): T1 sequence (whole entry)

[4] = target: Proto-oncogene Wnt-3 (Homo sapiens) (UniProt P56703); experiment: Binding affinity to Wnt3
[5] = target: T2, Secreted frizzled-related protein 1; experiment: Binding affinity to human SFRP1 by fluorescence spectroscopy
[6] = target: Secreted frizzled-related protein 1 (Homo sapiens) (UniProt Q8N474); experiment: Inhibition of human SFRP1
Mus musculus [7] = species on record: Mus musculus; experiment: Ex vivo osteogenic activity in mouse calvaria assessed in increase in total bone area at 15 uM; format: functional
Mus musculus [8] = species on record: Mus musculus; experiment: Ex vivo osteogenic activity in mouse calvaria assessed in increase in osteoblasts number at 15 uM; format: functional

Proto-oncogene Wnt-3 (Homo sapiens), sequence (P56703 whole entry): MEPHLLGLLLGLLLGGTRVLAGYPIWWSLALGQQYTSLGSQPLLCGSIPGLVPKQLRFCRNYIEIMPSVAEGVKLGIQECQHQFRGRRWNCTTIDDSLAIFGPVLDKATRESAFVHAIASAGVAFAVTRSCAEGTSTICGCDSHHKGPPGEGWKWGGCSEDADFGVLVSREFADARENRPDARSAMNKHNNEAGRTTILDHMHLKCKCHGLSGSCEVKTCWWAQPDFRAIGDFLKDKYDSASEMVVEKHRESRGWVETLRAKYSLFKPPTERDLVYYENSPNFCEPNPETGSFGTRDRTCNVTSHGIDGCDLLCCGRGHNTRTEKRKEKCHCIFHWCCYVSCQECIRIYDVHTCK

| Compound | fold change (FC) [2] | also measured |
| --- | --- | --- |
| N=C1NC(=O)C(CC(=O)NCc2cccc(Cl)c2)S1 (stereo unspecified) | – | fold change (FC) [1]: 1 |
| CCOC(=O)c1c(NC(=O)CC2SC(=N)NC2=O)sc(-c2ccccc2)c1C (stereo unspecified) | 0.8 | – |
| N=C1NC(=O)C(CC(=O)Nc2cccc(Cl)c2Cl)S1 (stereo unspecified) | – | fold change (FC) [1]: 1 |
| CCOC(=O)c1c(NC(=O)CC2SC(=N)NC2=O)sc(C)c1-c1ccccc1 (stereo unspecified) | 1.8 | – |
| CCOC(=O)c1c(NC(=O)CC2S/C(=N/C)NC2=O)sc(C)c1C (stereo unspecified) | 1.2 | – |
| CCOC(=O)c1cccc(NC(=O)CC2SC(=N)NC2=O)c1 (stereo unspecified) | – | fold change (FC) [1]: 1.5 |
| COC(=O)c1cc(-c2ccccc2)sc1NC(=O)CC1SC(=N)NC1=O (stereo unspecified) | 0.9 | – |
| CCOC(=O)c1c(NC(=O)CC2S/C(=N/C)N(C)C2=O)sc(C)c1C (stereo unspecified) | 1.2 | – |
| N=C1NC(=O)C(CC(=O)Nc2cccc(Cl)c2)S1 (stereo unspecified) | – | fold change (FC) [1]: 1.7 |
| CCOC(=O)c1c(NC(=O)CC2SC(=N)NC2=O)sc(Br)c1CNc1ccccc1 (stereo unspecified) | 2.5 | – |
| N=C1NC(=O)C(CC(=O)Nc2ccccc2)S1 (stereo unspecified) | – | fold change (FC) [1]: 1.1 |
| CCOC(=O)c1ccccc1NC(=O)CC1SC(=N)NC1=O (stereo unspecified) | 1.1 | – |
| CC/N=C1\NC(=O)C(CC(=O)Nc2sc(C)c(C)c2C(=O)OCC)S1 (stereo unspecified) | 1.2 | – |

Second part, led by results:

| fold change (FC) [2] | Compound | also measured |
| --- | --- | --- |
| 1.5 | CCOC(=O)c1c(NC(=O)CC2SC(=N)NC2=O)sc2c1CCC2 (stereo unspecified) | – |
| 1.2 | COC(=O)c1ccsc1NC(=O)CC1SC(=N)NC1=O (stereo unspecified) | – |
| 1.7 | CCOC(=O)c1cc(CC)sc1NC(=O)CC1SC(=N)NC1=O (stereo unspecified) | – |
| 2 | CCOC(=O)c1c(C)csc1NC(=O)CC1SC(=N)NC1=O (stereo unspecified) | – |
| 1.9 | CCOC(=O)c1c(NC(=O)CC2SC(=N)NC2=O)sc2c1CCCCC2 (stereo unspecified) | – |
| 1.9 | COC(=O)c1c(NC(=O)CC2SC(=N)NC2=O)sc(C)c1C (stereo unspecified) | EC50 [3]: 7.2 µM; Activity [4]: Active; Kd [5]: 0.72 µM; Activity [6]: Active |
| 2.3 | CCOC(=O)c1c(NC(=O)CC2SC(=N)NC2=O)sc(C)c1C (stereo unspecified) | Activity (Mus musculus [7]): Active; Activity (Mus musculus [8]): Active |
| 1.2 | N#Cc1c(NC(=O)CC2SC(=N)NC2=O)sc2c1CCCC2 (stereo unspecified) | – |
| 1 | CCOC(=O)c1c(NC(=O)CC2SC(=O)NC2=O)sc2c1CCCC2 (stereo unspecified) | – |
| 1.1 | N=C1NC(=O)C(CC(=O)Nc2sc3c(c2C(N)=O)CCCC3)S1 (stereo unspecified) | – |
| 2.6 | CCOC(=O)c1c(NC(=O)CC2SC(=N)NC2=O)sc(Br)c1C (stereo unspecified) | – |
| 1.6 | CCOC(=O)c1c(NC(=O)CC2SC(=N)NC2=O)sc2c1CCCC2 (stereo unspecified) | – |
